Test [1] deals with 5-HT2 receptor (Rattus norvegicus, UniProt P14842). Description: 5-HT2 Receptor Binding Assay (3H-ketanserin displacement).
Test [2] addresses T1, human D4 receptor (D4.2 sub-type) (Homo sapiens, UniProt P21917, DEL265-296).
T1 construct: expressed in transfected cells; host or cells: HEK 298 [sic] (human embryonic kidney) cells
T1 sequence (P21917 with tags, fused parts or gaps DEL265-296): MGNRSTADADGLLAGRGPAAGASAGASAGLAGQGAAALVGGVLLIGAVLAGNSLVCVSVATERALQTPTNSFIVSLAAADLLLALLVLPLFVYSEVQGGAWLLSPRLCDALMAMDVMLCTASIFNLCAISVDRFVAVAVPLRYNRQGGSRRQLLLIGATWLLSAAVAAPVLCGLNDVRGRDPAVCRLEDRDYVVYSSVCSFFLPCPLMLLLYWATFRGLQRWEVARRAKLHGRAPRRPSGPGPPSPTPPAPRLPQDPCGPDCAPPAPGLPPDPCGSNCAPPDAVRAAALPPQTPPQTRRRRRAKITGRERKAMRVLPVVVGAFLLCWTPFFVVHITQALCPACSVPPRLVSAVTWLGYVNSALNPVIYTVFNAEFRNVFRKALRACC
In words: Dopamine D4 Receptor Binding Assay (3H-spiperone displacement). Particulars: 3H-spiperone 0.25 nM; cells stably transfected with human D4.2; 90 minutes, room temperature, pH 7.4. The protocol:
The cells were then centrifuged in a Sorval centrifuge for 10 minutes, 5000 rpm (GS3 rotor) and the pellets quickly frozen in liquid nitrogen and stored at -80° C. until used in binding assay. When used in the assay, cells were thawed on ice for 20 minutes and then 10 mL of incubation buffer (50 mM Tris, 1 mM EDTA, 4 mM MgCl2, 5 mM KCl, 1.5 mM CaCl2, 120 mM NaCl, pH7.4) was added. […] Concentration of receptor protein was determined using the Pierce BCA assay.
(§1) The incubation was started by the addition to 12×75 mm polypropylene tubes 500 μl (50 μg protein) membrane homogenate to a solution of 400 μl incubation buffer, 100 μl ([…].) ^3 H-spiperone (90 Ci/mmol, Amersham, diluted in borosilicate glass vial to) and 500 μl of test compound that was prepared from 1 mM stock dissolved in DMSO and stored at -20° C. in polypropylene cryogenic storage vials until dilution in incubation buffer in borosilicate glass vials.

Test [3] addresses T2, human D2 receptor (short isoform) (Homo sapiens, UniProt P14416).
T2 construct: expressed in transfected cells
In words: Dopamine D2 Receptor Binding Assay (3H-spiperone displacement). Particulars: 3H-spiperone 0.25 nM; GH4C1 (rat pituitary) cells stably transfected with human D2 short; 90 minutes, room temperature, pH 7.4. As to the method: GH4 C1 (rat pituitary) cells stably transfected with the human D2 receptor (short isoform) were grown in CO2 independent media in roller bottles (1500 cm^2) for 10 days. 100 μM ZnSO4 was added to the cells (the D2 promoter being zinc inducible). After 16 hours, fresh media was added to allow the cells to recover for 24 hours. The cells were harvested using versene and then centrifuged in a Sorval centrifuge for 10 minutes, at 5000 rpm (GS3 rotor). Pellets were quickly frozen in liquid nitrogen and stored at -80° C. until used in the binding assays. When used in the assay, cells were thawed on ice for 20 minutes.
This assay employed the same procedures as the non-specific binding assay for D4 with the exception that 2 μM (final conc.) of (-) sulpiride (Research Chemicals Inc.) was used in place of dopamine.
as §1

T2 sequence (P14416 1-414 isoform P14416-2): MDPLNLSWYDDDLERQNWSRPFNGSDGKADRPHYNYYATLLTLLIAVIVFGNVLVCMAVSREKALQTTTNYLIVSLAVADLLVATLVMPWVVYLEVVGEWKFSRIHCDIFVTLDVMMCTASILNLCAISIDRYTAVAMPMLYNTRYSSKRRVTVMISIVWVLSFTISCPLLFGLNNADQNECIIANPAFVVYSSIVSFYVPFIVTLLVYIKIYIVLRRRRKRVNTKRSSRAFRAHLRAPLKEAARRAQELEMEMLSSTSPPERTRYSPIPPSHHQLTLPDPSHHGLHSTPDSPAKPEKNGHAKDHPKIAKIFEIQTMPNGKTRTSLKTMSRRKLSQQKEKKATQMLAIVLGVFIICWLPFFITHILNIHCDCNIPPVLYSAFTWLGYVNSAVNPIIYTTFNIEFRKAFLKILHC
Chain of 5-HT2 receptor (P14842 whole entry): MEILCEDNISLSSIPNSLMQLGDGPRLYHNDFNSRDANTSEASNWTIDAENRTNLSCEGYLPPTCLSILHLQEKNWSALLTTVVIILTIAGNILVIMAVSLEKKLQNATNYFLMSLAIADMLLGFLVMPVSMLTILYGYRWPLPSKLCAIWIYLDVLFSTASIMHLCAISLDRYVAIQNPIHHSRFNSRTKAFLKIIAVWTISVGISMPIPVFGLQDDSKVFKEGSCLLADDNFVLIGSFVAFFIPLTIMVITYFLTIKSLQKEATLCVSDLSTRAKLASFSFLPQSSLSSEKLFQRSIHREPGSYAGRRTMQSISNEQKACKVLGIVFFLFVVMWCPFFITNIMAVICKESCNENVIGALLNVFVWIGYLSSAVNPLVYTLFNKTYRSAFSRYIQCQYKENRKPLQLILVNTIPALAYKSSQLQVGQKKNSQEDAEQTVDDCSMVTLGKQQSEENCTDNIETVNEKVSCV

For orientation: Ki means a dissociation constant, usually derived from enzyme kinetics or from competition with a known ligand. A higher Ki goes with weaker binding. With `CC1CN(C2=Nc3ccccc3Nc3cc(Cl)ccc32)CC(C)N1` (stereo not drawn) [3-chloro-11-(3,5-dimethyl-1-piperazinyl)-5H-dibenz[b,e][1,4]diazepine], the figures for the inhibition constant Ki in test [1], in test [2] and in test [3] were 0.024 µM, 2750 nM and 14100 nM, respectively.

As for `CC1CN(C2=Nc3cc(Cl)ccc3Oc3ccccc32)CC(C)N1` (stereo not drawn) [8-chloro-11-(3,5-dimethyl-1-piperazinyl)-dibenz[b,f][1,4]oxazepine], the results for the Ki in test [1], in test [2] and in test [3] were 0.0134 µM, 215 nM and 2170 nM, respectively.

As to `CC1CN(C2=Nc3ccccc3Oc3ccccc32)C(C)CN1` (stereo not drawn) [11-(2,5-dimethyl-1-piperazinyl)-dibenz[b,f][1,4]oxazepine], the Ki was 0.092 µM in test [1], 4540 nM in test [2] and 4890 nM in test [3].

As to `CC1CN(C2=Nc3ccccc3Oc3ccccc32)CC(C)N1` (stereo not drawn) [11-(3,5-dimethyl-1-piperazinyl)-dibenz[b,f][1,4]oxazepine], the Ki was found to be 0.368 µM in test [1], 1100 nM in test [2] and 6330 nM in test [3].

(Values after US5824676A, “5-HT2 receptor ligands” (Allelix Biopharmaceuticals Inc., priority 1996, dated 1998).)
